The results in this text go back to patent US20090304692A1, “TRIAZINE COMPOUNDS AS PI3 KINASE AND MTOR INHIBITORS” (Wyeth, priority 2008, published 2009).

The target of one test is Human mTOR (FLAG-TOR) (Homo sapiens, UniProt P42345). The test can be described thus: mTOR kinase assay (DELFIA format, purified enzyme). The test is classed as biochemical. As to conditions: read-out: IC50 mTOR.
The next test has as its target PI3K-α (Homo sapiens, UniProt P42336). Nature of the test: PI3K-alpha fluorescence polarization assay. As to conditions: read-out: IC50 PI3Kα.
A further test deals with PI3K-γ (Homo sapiens, UniProt P48736). The test can be described thus: PI3K-gamma fluorescence polarization assay. A general note: Polarisation of emitted light reports the rotation of a fluorescent probe.
Chain of PI3K-γ (P48736 whole entry, species assumed): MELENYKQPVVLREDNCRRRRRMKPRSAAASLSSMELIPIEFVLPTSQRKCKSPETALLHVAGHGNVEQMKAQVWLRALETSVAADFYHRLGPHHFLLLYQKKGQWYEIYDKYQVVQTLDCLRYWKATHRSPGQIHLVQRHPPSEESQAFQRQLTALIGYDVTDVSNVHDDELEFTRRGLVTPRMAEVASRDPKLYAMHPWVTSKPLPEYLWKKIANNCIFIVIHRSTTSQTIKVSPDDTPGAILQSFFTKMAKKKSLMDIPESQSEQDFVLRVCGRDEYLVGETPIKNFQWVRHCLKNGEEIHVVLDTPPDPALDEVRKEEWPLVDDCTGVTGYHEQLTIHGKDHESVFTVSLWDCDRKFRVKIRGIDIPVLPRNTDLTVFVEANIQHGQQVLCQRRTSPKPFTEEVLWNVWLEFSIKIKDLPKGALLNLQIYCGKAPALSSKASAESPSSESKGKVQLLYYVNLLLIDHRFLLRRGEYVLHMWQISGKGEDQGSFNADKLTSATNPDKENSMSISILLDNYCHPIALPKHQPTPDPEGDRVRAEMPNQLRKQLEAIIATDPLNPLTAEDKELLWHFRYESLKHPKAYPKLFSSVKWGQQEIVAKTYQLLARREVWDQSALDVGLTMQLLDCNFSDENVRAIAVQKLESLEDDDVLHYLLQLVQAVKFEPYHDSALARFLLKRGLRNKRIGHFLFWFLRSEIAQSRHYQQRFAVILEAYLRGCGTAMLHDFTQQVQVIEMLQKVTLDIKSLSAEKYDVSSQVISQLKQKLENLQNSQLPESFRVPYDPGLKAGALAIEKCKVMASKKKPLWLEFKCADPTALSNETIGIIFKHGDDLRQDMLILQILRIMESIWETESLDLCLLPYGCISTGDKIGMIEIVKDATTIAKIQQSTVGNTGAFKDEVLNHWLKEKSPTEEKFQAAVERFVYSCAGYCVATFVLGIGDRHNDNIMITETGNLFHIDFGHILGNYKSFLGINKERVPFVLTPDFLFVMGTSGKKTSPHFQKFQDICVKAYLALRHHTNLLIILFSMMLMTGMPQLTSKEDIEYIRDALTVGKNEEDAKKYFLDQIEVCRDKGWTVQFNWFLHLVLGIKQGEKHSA
Test [1] deals with human prostate LNCap tumor cell line. The test can be described thus: In vitro cell culture growth assay (MTS), LNCap. The conditions noted are these: read-out: IC50 LNCap.
[2] abbreviates: MTS cell growth assay, three days after drug treatment.

Where two headings read alike, the source gives them in different places.

Chain of Human mTOR (FLAG-TOR) (P42345 1360-2549 limits assumed): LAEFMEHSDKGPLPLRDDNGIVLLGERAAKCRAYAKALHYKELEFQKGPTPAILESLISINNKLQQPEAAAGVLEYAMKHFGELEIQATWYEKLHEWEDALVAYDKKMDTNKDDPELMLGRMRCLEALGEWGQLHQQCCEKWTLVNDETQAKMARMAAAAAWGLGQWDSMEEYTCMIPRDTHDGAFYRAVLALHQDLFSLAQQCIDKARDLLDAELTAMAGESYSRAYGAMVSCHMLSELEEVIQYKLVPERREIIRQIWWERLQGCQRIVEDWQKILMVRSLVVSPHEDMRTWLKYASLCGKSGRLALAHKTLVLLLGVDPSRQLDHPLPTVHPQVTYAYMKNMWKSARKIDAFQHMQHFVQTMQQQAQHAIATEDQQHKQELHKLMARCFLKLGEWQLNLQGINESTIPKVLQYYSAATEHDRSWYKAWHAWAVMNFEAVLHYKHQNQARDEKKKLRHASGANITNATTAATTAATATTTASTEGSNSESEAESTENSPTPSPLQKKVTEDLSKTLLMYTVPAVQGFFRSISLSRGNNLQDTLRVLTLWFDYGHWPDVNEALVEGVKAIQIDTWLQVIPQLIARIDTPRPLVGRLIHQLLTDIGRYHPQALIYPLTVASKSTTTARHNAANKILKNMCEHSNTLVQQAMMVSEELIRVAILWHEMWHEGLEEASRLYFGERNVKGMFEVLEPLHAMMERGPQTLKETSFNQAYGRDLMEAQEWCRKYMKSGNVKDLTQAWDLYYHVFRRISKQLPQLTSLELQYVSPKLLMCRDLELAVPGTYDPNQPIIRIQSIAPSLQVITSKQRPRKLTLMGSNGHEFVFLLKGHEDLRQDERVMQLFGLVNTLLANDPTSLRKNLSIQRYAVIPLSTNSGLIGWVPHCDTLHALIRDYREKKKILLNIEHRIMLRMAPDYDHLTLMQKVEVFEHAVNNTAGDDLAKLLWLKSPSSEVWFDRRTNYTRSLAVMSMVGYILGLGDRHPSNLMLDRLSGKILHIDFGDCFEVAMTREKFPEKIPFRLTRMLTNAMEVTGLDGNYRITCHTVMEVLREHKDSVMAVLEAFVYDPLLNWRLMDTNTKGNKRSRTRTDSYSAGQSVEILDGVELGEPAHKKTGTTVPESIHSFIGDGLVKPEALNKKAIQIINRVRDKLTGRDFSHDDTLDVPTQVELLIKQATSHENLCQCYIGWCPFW
Chain of PI3K-α (P42336 whole entry, species assumed): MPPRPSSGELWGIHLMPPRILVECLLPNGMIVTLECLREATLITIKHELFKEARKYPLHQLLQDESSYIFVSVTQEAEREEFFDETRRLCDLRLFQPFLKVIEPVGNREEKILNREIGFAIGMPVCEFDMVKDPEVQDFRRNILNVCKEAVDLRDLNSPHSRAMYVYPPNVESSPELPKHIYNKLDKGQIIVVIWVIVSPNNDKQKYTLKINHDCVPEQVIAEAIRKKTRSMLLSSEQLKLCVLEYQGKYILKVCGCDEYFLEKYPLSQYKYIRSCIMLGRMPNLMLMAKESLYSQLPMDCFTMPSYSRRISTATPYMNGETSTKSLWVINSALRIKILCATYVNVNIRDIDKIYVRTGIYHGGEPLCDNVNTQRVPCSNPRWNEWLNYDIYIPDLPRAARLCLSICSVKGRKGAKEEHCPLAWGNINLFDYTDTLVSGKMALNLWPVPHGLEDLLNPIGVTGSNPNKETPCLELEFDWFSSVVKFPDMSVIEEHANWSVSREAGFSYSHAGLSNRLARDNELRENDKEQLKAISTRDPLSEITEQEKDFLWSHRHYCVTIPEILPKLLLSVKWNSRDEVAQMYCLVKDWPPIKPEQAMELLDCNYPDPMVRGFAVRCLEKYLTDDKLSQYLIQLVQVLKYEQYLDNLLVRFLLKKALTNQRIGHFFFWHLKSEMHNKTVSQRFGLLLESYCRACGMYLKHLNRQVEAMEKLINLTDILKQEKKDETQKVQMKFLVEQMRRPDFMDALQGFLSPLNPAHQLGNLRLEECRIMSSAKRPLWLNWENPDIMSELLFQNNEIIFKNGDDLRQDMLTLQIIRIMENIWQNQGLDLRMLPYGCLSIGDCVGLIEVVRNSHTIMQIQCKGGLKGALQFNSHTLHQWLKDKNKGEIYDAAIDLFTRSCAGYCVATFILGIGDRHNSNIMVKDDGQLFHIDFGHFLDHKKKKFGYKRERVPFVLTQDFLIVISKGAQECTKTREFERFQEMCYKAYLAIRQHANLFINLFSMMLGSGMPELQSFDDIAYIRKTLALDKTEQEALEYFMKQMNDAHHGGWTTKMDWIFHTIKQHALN
Chain of PI3K-α (P27986 whole entry partner, species assumed): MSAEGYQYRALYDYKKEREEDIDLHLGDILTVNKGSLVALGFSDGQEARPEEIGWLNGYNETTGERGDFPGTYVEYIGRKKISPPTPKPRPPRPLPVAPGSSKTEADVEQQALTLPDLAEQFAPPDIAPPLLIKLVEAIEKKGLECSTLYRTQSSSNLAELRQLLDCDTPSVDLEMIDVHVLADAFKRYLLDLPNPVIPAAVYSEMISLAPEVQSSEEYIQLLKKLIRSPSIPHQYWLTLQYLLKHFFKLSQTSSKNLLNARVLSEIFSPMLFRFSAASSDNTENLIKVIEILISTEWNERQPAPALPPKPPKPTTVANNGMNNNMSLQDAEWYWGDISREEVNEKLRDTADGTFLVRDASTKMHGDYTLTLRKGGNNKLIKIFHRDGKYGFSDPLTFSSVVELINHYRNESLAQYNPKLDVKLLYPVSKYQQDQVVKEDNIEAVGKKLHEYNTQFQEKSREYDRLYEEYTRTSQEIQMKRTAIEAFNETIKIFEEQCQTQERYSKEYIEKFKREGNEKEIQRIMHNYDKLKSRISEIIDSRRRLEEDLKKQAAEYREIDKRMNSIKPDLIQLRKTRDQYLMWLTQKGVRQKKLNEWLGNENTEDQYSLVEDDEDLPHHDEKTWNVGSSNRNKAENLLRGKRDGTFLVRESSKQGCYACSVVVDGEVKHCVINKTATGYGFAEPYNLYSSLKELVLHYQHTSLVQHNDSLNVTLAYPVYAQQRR

As to “1-(4-(4-(3-oxa-8-azabicyclo[3.2.1]octan-8-yl)-6-(piperidin-4-ylamino)-1,3,5-triazin-2-yl)phenyl)-3-ethylurea [Example 361]”, the IC50 (usually the concentration that inhibits the measured activity by half) is 1.3 nM on Human mTOR (FLAG-TOR), 6030 nM on PI3K-α, more than 10000 nM at PI3K-γ (read-out: IC50 PI3Kγ) and 2.2 nM in test [1] (setting [2]).
Consider “1-(4-(4-(3-oxa-8-azabicyclo[3.2.1]octan-8-yl)-6-(piperidin-4-ylamino)-1,3,5-triazin-2-yl)phenyl)-3-ethylurea [Example 362]”, for which the IC50 on Human mTOR (FLAG-TOR) is 0.74 nM; at PI3K-α, 3090 nM; at PI3K-γ (read-out: IC50 PI3Kγ) it was more than 10000 nM; in test [1] (setting [2]), 1 nM.
Turning to “1-(4-(4-(3-oxa-8-azabicyclo[3.2.1]octan-8-yl)-6-(piperidin-4-ylamino)-1,3,5-triazin-2-yl)phenyl)-3-ethylurea [Example 364]”, the IC50 on Human mTOR (FLAG-TOR) stood at 3.5 nM; at PI3K-α, 1460 nM; at PI3K-γ (read-out: IC50 PI3Kγ), 8040 nM; in test [1] (setting [2]), 70 nM.
For “1-{4-[4-(4-morpholin-4-ylpiperidin-1-yl)-6-(8-oxa-3-azabicyclo[3.2.1]oct-3-yl)-1,3,5-triazin-2-yl]phenyl}-3-pyridin-4-ylurea [Example 121]”, in that order: 43.5 nM, 1850 nM, 4000 nM and 1000 nM.
As to `O=C(Nc1ccc(-c2nc(N3CC4CCC(C3)O4)nc(N3CC4CCC(C3)O4)n2)cc1)OCCO` [Example 27, 2-hydroxyethyl[4-(4,6-di-8-oxa-3-azabicyclo[3.2.1]oct-3-yl-1,3,5-triazin-2-yl)phenyl]carbamate], the IC50 on Human mTOR (FLAG-TOR) is 4.15 nM; at PI3K-α, 1230 nM; at PI3K-γ, more than 10000 nM; in test [1] (Homo sapiens, LNCaP, 72 h), 350 nM.
Regarding `CN1CCN(c2ccc(NC(=O)Nc3ccc(-c4nc(N5CC6CCC(C5)O6)nc(N5CC6CCC(C5)O6)n4)cc3)cc2)CC1` [Example 28, 1-[4-(4,6-di-8-oxa-3-azabicyclo[3.2.1]oct-3-yl-1,3,5-triazin-2-yl)phenyl]-3-[4-(4-methylpiperazin-1-yl)phenyl]urea], the IC50 on Human mTOR (FLAG-TOR) is 0.95 nM; at PI3K-α it was 54 nM; at PI3K-γ (read-out: IC50 PI3Kγ), 5550 nM; in test [1] (Homo sapiens, LNCaP, 72 h), 2.4 nM.
With `CCNC(=O)Nc1ccc(-c2nc(N3CC4CCC(C3)O4)nc(N3CC4CCC(C3)O4)n2)cc1` [Example 29, 1-[4-(4,6-di-8-oxa-3-azabicyclo[3.2.1]oct-3-yl-1,3,5-triazin-2-yl)phenyl]-3-ethylurea], the IC50 is 2.8 nM at Human mTOR (FLAG-TOR); 2690 nM on PI3K-α; more than 10000 nM on PI3K-γ; 180 nM in test [1] (Homo sapiens, LNCaP, 72 h).
`O=C(Nc1ccc(-c2nc(N3CC4CCC(C3)O4)nc(N3CC4CCC(C3)O4)n2)cc1)NC1CC1` [Example 30, 1-cyclopropyl-3-[4-(4,6-di-8-oxa-3-azabicyclo[3.2.1]oct-3-yl-1,3,5-triazin-2-yl)phenyl]urea]: the IC50 was 2.65 nM at Human mTOR (FLAG-TOR); 2120 nM at PI3K-α; more than 10000 nM on PI3K-γ; 90 nM in test [1] (Homo sapiens, LNCaP, 72 h).
Turning to `O=C(Nc1ccncc1)Nc1ccc(-c2nc(N3CC4CCC(C3)O4)nc(N3CC4CCC(C3)O4)n2)cc1` [Example 31, 1-[4-(4,6-di-8-oxa-3-azabicyclo[3.2.1]oct-3-yl-1,3,5-triazin-2-yl)phenyl]-3-pyridin-4-ylurea], the concentration for half-maximal inhibition (IC50) on Human mTOR (FLAG-TOR) was 0.49 nM; on PI3K-α, 142 nM; on PI3K-γ (read-out: IC50 PI3Kγ) it was 3520 nM; in test [1] (Homo sapiens, LNCaP, 72 h) it was 45 nM.
Taken in the same sequence, the figures for `O=C(Nc1ccc(CO)cc1)Nc1ccc(-c2nc(N3CC4CCC(C3)O4)nc(N3CC4CCC(C3)O4)n2)cc1` [Example 32, 1-[4-(4,6-di-8-oxa-3-azabicyclo[3.2.1]oct-3-yl-1,3,5-triazin-2-yl)phenyl]-3-[4-(hydroxymethyl)phenyl]urea] were 0.29 nM, 45 nM, 2540 nM and 0.7 nM.
As to `CC(C)(C)OC(=O)N1CCN(c2nc(-c3ccc(NC(=O)Nc4ccncc4)cc3)nc(N3CC4CCC(C3)O4)n2)CC1` [Example 106, Tert-butyl 4-(4-(8-oxa-3-azabicyclo[3.2.1]octan-3-yl)-6-(4-(3-pyridin-4-ylureido)phenyl)-1,3,5-triazin-2-yl)piperazine-1-carboxylate], the IC50 on Human mTOR (FLAG-TOR) amounted to 7.55 nM; at PI3K-α it was 393 nM; on PI3K-γ (read-out: IC50 PI3Kγ), 1840 nM; in test [1] (Homo sapiens, LNCaP, 72 h), 370 nM.
Taken in the same sequence, the figures for `O=C(Nc1ccncc1)Nc1ccc(-c2nc(N3CCNCC3)nc(N3CC4CCC(C3)O4)n2)cc1` [Example 107, 1-(4-(4-(8-oxa-3-azabicyclo[3.2.1]octan-3-yl)-6-(piperazin-1-yl)-1,3,5-triazin-2-yl)phenyl)-3-(pyridin-4-yl)urea] were 19 nM, 115 nM, 1490 nM and 1000 nM.
Taken in the same sequence, the figures for `CN1CCN(c2nc(-c3ccc(NC(=O)Nc4ccncc4)cc3)nc(N3CC4CCC(C3)O4)n2)CC1` [Example 108, 1-{4-[4-(4-methylpiperazin-1-yl)-6-(8-oxa-3-azabicyclo[3.2.1]oct-3-yl)-1,3,5-triazin-2-yl]phenyl}-3-pyridin-4-ylurea] were 19 nM, 586 nM, 4150 nM and 320 nM.
In the case of `O=C(Nc1ccncc1)Nc1ccc(-c2nc(N3CCN(Cc4ccccc4)CC3)nc(N3CC4CCC(C3)O4)n2)cc1` [Example 109, 1-{4-[4-(4-benzylpiperazin-1-yl)-6-(8-oxa-3-azabicyclo[3.2.1]oct-3-yl)-1,3,5-triazin-2-yl]phenyl}-3-pyridin-4-ylurea], the IC50 at Human mTOR (FLAG-TOR) worked out at 73.5 nM; on PI3K-α, 1460 nM; on PI3K-γ (read-out: IC50 PI3Kγ) it was 2960 nM; in test [1] (Homo sapiens, LNCaP, 72 h), 1900 nM.
On to `O=C(Nc1ccncc1)Nc1ccc(-c2nc(N3CCN(Cc4cccnc4)CC3)nc(N3CC4CCC(C3)O4)n2)cc1` [Example 110, 1-(4-{4-(8-oxa-3-azabicyclo[3.2.1]oct-3-yl)-6-[4-(pyridin-3-ylmethyl)piperazin-1-yl]-1,3,5-triazin-2-yl}phenyl)-3-pyridin-4-ylurea], for which the IC50 was 29 nM on Human mTOR (FLAG-TOR); 884 nM on PI3K-α; 3510 nM on PI3K-γ (read-out: IC50 PI3Kγ); 220 nM in test [1] (Homo sapiens, LNCaP, 72 h).
As for `CC(=O)N1CCN(c2nc(-c3ccc(NC(=O)Nc4ccncc4)cc3)nc(N3CC4CCC(C3)O4)n2)CC1` [Example 111, 1-{4-[4-(4-acetylpiperazin-1-yl)-6-(8-oxa-3-azabicyclo[3.2.1]oct-3-yl)-1,3,5-triazin-2-yl]phenyl}-3-pyridin-4-ylurea], the concentration for half-maximal inhibition (IC50) worked out at 2.3 nM on Human mTOR (FLAG-TOR); 116 nM at PI3K-α; 1830 nM on PI3K-γ (read-out: IC50 PI3Kγ); 58 nM in test [1] (Homo sapiens, LNCaP, 72 h).
For `CC(C)Nc1nc(-c2ccc(NC(=O)NCCO)cc2)nc(N2CC3CCC(C2)O3)n1` [Example 214, 1-(2-hydroxyethyl)-3-(4-{4-[(1-methylethyl)amino]-6-(8-oxa-3-azabicyclo[3.2.1]oct-3-yl)-1,3,5-triazin-2-yl}phenyl)urea], the IC50 at Human mTOR (FLAG-TOR) was 2.9 nM; on PI3K-α, 2670 nM; in test [1] (Homo sapiens, LNCaP, 72 h), 700 nM.
